One data set concerns chronic asthma. The conditions noted are these: chronic asthma studies; cited from earlier work.
Data set [1] concerns allergen-induced early and late phases of lung-volume decline. The conditions noted are these: clinical trials / allergen-challenge studies; cited from earlier work.
Data set [2] is described as follows: Examination of liver weight change in mice. Particulars: oral 250 mg/kg daily for 4 days, compared with vehicle control.
Procedure: Twenty-four hours following the final administration mice were placed into an enclosed Plexiglas chamber and exposed to CO2 for a period of 1-2 minutes or until breathing ceased. They were then removed and blood was taken via a cardiac puncture and cervical dislocation was performed. Subjects were next placed in a supine position and a midline incision made. All organs were inspected and the livers removed by careful dissection. Liver weights were recorded as well as any gross abnormalities.
For another data set, the target named is T1, CYP1A2 (Homo sapiens, UniProt P05177).
T1 sequence (P05177 1-516): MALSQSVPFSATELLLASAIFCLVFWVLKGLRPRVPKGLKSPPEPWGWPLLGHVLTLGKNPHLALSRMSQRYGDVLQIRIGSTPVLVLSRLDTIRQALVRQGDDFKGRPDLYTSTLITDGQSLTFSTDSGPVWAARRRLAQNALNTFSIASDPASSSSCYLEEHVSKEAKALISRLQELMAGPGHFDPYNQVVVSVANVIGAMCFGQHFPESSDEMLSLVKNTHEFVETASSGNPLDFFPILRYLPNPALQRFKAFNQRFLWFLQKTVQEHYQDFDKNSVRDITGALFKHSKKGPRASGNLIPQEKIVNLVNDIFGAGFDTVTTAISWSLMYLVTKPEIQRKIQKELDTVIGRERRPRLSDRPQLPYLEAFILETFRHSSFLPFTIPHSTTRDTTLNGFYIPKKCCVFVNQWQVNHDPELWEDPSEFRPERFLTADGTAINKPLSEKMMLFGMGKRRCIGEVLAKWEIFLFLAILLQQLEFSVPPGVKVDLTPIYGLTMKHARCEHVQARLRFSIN

The next data set has as its system urinary LTE4 production. The data set is described as follows: Phase 1 study, urinary LTE4. In kind it is in vivo, human. Particulars: profile that may be obtained from a single dose administration to a human, dose not stated. How it is done:
(§1) Pharmacodynamics: Whole blood ionophore-stimulated leukotriene LTB4 and urinary LTE4 production are assayed by ELISA and mass spectrometry, respectively.
(§2) Obtain pre-dose fasting blood samples for hematology determinations. Obtain pre-dose fasting blood samples for serum chemistry determinations. Obtain pre-dose blood samples (5 mL EDTA and 4 mL heparinized) for baseline PK and LTB4. Collect ‘spot’ urine prior to study drug administration for baseline (pre-dose) LTE4. Administer study drug. […] Collect blood samples (2 mL heparinized) for LTB4 at 0.5, 1, 2, 3, 4, 6, 8, and 12 hours. Collect urine for LTE4 for the following separate intervals: 0-3, 3-6, 6-9, and 9-12 hours. For twice daily dosing group (if conducted): administer study drug 12 hours±30 minutes after prior dose, preceded by ≧2 hours fast.
(§3) Obtain pre-dose fasting blood samples for hematology determinations. Obtain pre-dose fasting blood samples for serum chemistry determinations. […] Collect blood samples (2 mL heparinized) for LTB4 at 24 hours after the first study drug administration; 4 mL blood will be collected at this time point in the Single Dose Phase. Collect ‘spot’ urine sample for LTE4 at 24 and 36 hours after first study drug administration.
(§4) Obtain pre-dose blood samples (5 mL EDTA and 2 mL heparinized) for PK and LTB4. Collect pre-dose urine for LTE4. Administer study drug (last dose of drug). […] Collect blood samples (2 mL heparinized) for LTB4 at 0.5, 1, 2, 3, 4, 6, 8, and 12 hours. Collect urine for LTE4 for the following separate intervals: 0-3, 3-6, 6-9, and 9-12 hours after study drug administration.
(§5) Record vital signs 24 hours after Day 11 study drug administration. […] Collect blood sample (4 mL heparinized) for LTB4 at 24 hours after Day 11 study drug administration. Collect ‘spot’ urine sample for LTE4 at 24 hours after Day 11 study drug administration.
(§6) Whole blood ionophore-stimulated leukotriene LTB4 and urinary LTE4 production were assayed by ELISA and mass spectrometry, respectively.

Data set [3] concerns whole blood ionophore-stimulated leukotriene LTB4. As to the kind of experiment: Phase 1 study, whole blood ionophore-stimulated LTB4. In kind it is in vivo, human. Particulars: profile that may be obtained from a single dose administration to a human, dose not stated. How it is done:
as §1, §2, §3, §4, §5, §6

Data set [4] has as its system CYP2C9. Particulars: tested at 10 μM; diclofenac substrate.
For a further data set, the target named is CYP3A4 (Homo sapiens, UniProt P08684). Particulars: microsomes.
The next data set addresses CYP2D6 (Homo sapiens, UniProt P10635). The conditions noted are these: microsomes.
Data set [5] deals with CYP2C9 (Homo sapiens, UniProt P11712). Particulars: microsomes.
In another data set the target is CYP2C19 (Homo sapiens, UniProt P33261). Particulars: microsomes.

Broadly, the IC50 is the concentration needed to halve the response being measured.

CYP3A4, sequence (P08684 whole entry): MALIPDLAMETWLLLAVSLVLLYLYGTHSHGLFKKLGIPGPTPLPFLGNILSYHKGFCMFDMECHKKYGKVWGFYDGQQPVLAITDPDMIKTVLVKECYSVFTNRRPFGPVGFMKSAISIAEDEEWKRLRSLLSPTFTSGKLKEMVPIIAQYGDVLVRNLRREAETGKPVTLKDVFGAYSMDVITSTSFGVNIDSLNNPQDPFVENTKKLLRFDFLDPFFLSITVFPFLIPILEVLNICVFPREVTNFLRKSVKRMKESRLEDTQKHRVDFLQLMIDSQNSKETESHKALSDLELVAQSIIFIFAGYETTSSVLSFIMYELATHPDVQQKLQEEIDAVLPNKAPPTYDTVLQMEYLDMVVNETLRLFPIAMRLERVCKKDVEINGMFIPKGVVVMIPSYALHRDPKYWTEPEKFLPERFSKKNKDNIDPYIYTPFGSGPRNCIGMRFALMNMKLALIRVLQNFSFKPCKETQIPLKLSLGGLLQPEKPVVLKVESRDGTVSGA
CYP2C9 (Homo sapiens, UniProt P11712), sequence (P11712 whole entry): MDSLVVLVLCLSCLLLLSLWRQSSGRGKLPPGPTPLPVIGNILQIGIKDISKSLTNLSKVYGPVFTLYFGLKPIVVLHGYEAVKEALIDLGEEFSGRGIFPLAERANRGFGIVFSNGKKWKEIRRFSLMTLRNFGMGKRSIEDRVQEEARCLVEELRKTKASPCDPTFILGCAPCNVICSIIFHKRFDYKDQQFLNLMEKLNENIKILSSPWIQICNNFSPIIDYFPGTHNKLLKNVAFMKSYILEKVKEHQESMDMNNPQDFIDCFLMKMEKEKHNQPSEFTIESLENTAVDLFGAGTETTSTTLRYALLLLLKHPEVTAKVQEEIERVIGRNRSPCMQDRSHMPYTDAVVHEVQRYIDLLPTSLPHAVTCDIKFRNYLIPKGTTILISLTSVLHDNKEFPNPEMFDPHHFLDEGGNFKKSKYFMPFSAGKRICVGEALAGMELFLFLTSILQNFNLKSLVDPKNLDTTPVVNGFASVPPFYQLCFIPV
CYP2D6, sequence (P10635 whole entry): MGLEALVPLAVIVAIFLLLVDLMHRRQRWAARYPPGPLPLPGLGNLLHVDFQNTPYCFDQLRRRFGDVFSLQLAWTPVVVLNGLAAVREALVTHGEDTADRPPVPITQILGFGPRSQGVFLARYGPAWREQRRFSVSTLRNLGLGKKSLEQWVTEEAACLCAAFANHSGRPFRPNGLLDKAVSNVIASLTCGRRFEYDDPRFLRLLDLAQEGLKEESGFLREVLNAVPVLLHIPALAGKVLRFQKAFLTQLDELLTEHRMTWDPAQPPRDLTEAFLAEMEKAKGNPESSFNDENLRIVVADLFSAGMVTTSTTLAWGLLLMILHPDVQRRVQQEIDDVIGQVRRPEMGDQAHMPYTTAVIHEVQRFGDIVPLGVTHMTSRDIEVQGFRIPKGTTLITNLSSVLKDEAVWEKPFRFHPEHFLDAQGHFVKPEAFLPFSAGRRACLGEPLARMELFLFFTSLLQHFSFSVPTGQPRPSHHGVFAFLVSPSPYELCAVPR
CYP2C19, sequence (P33261 whole entry): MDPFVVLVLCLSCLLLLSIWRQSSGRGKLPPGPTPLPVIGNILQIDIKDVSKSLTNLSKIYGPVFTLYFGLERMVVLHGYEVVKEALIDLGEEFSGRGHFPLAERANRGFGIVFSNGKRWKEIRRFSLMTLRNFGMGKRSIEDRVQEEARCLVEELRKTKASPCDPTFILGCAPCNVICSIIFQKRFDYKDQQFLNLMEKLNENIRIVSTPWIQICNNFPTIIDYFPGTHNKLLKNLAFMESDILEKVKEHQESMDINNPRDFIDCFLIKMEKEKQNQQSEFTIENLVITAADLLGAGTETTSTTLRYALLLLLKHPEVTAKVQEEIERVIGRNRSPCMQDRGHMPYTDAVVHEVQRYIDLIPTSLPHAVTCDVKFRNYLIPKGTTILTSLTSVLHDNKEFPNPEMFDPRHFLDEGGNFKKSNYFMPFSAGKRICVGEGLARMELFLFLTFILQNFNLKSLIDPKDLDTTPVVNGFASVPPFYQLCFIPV

Regarding `CC(c1cc2ccccc2s1)N(O)C(N)=O` (stereo not shown) [Zileuton], the efficacy in words result in the data set with chronic asthma was “exhibited clinical efficacy”; in data set [1], “not effective”. Also, the liver weight alteration in data set [2] turned out to be 36.0%.

Consider `COc1ccc(-c2ccc(Cn3c(CC(C)(C)C(=O)O)c(SC(C)(C)C)c4cc(OCc5ccccn5)ccc43)cc2)cn1` [sodium 3-[5-(pyrid-2-ylmethoxy)-3-(2-methyl-2-propylthio)-1-] [sodium 3-[5-(pyridin-2-ylmethoxy)-3-(2-methyl-2-propylthio)-1-[4-(2-methoxypyridin-5-yl)benzyl]-indol-2-yl]-2,2-dimethyl-propionate], for which the inhibition in words entry was “No apparent inhibition” against CYP1A2; “No apparent inhibition” on CYP3A4; “No apparent inhibition” at CYP2D6; “No apparent inhibition” against CYP2C9 [5]; “weakly inhibited” against CYP2C19. Moreover, the “inhibition of urinary LTE4 levels at 24 hours” value in the data set with urinary LTE4 production is given as not below 80%. In addition, in [3], the “inhibition of blood LTB4 levels at 8 hours (Ionophore Challenge)” value is not below 80%. Besides, the “inhibition of blood LTB4 levels at 24 hours (Ionophore Challenge)” value in [3] is recorded as not below 30%. Also, in the data set with CYP2C9 [4], the “CYP2C9 induction in words” value was “No apparent induction”. The IC50 at CYP3A4 (human, pH 7.4) was more than 50 µM.

The record behind these values is US8697730B2, “5-lipoxygenase activating protein (FLAP) inhibitor” (Panmira Pharmaceuticals, LLC, priority 2007, dated 2014).
